Entries after “also recorded” stand apart in the source; their conditions may differ.
Experiments:
[1] = test system: LNCaP human prostate cancer cells; test: DCFH (DCF) oxidation assay of ROS, DCF/DNA fluorescence; assay type: cell-based; conditions: for DCF/DNA Fluor, units: DMEM + (F1/C4)
Protocol: It is well-accepted in the art that androgen, at physiological concentrations, induces ROS production in androgen dependent prostate cancer cells. A 2′,7′-dichlorodihydrofluorescein diacetate (DCF) oxidation assay was used to measure the ratio of oxidized DCF:DNA fluorescence which is an accepted measure of ROS levels in prostate cell lines. […]
Results were determined using DCF oxidation assay methods. Each data point is an average of readings from qty. 6 wells repeated twice in triplicates.
(§1) DCFH oxidation assay. The 96-well cultures or freshly re-sected animal or human tissues were assayed for estimation of ROS levels in intact cells using the dye 2′,7′ -dichlorofluorescein diacetate (DCF) (Molecular Probes, Inc., Eugene, Oreg.). Re-sected tissues or cell cultures were washed with 200 μL Kreb's Ringer buffer (116 mM NaCl, 4.2 mM KCl, 2.5 mM CaCl2, 1.6 mM NaH2PO4, 1.2 mM MgSO4, 22 mM NaHCO3, and 11 mM D-glucose), pre-warmed to 37° C., incubated at 37° C. in 100 μL Kreb's Ringer buffer containing 10 μg/mL (final concentration) DCF dye for 45 minutes. Each 96-well culture plate was scanned on a CytoFluor 2350™ plate scanner (Applied Biosystems, Foster City, Calif.) using the 485 excitation/530 emission frequencies. Each tissue sample was scanned.
DNA Assay. Fifty μL of Kreb's Ringer Buffer (40 ug/mL) containing Hoechst 33342 dye, which contains
(§2) was added to each well 45 minutes and to all tissues 60 minutes before fluorescence measurements. The DNA fluorescence was determined 360 nm excitation/460 nm emission. All DCF or Hydroethidine fluorescence were normalized to DNA fluorescence for proper quantitation of oxidative stress.

[2] = test system: DU-145 human prostate cancer cells; test: as above; assay type: cell-based; conditions: for DCF/DNA Fluor, units: DU-145, DMEM + F(5)
Protocol: It is well-accepted in the art that androgen, at physiological concentrations, induces ROS production in androgen dependent prostate cancer cells. A 2′,7′-dichlorodihydrofluorescein diacetate (DCF) oxidation assay was used to measure the ratio of oxidized DCF:DNA fluorescence which is an accepted measure of ROS levels in prostate cell lines.
The LNCaP human prostate cancer cells were grown in an androgen-depleted medium of 1% FBS and 4% charcoal stripped FBS, (F1/C4) and in the presence or absence of 1 nM synthetic androgen analog R1881 with or without 15 μM antioxidant α-tocopherol (vitamin E) pretreatment.
BE-3-3-3 is known to induce SSAT enzyme activity in various cell lines including androgen-dependent LNCaP and androgen-independent DU-145 prostate cancel cells. DU-145 cells were treated with increasing concentrations of BE-3-3-3 for 72 hours. Oxidative stress was measured using 96-well plate based 2′7′-dichlorfluorescein diacetate dye (“DCF”) oxidation assay. Each data point is an average of qty. 6 identically-treated wells repeated twice in triplicates.
as §1, with “Each tissue sample was scanned.” left out
as §2

[3] = Tolerability and body weight in TRAMPxFVB mice; conditions: 25 mg/kgBW
Androgen Receptor = test: Western blot analysis of Androgen Receptor; assay type: in vivo, mouse; conditions: TRAMPxFVB mice
[4] = test system: prostate tissue in TRAMPxFVB animals; test: Hydroethidine (HEt) dye oxidation in prostate sections in vivo; parameters: species or system mouse; conditions: 20-week-old TRAMPxFVB, 6 administrations of 25 mg/kgBW, sacrificed 2 weeks after treatment, HEt 8 mg/kgBW i.v.
Protocol: A method using hydroethidine (HEt) dye oxidation was standardized to observe oxidative stress in prostate tumors in vivo. HEt oxidizes to 2-hydroxy ethidium specifically by a ROS(41). The 2-hydroxy ethidium fluoresces at 488 nm excitation and 595 nm emission frequencies. The HEt dye may be safely injected into animals at least 1 hour before sacrifice. Twenty-week old TRAMPxFVB animals were injected with HEt (8 mg/kgBW) 1 hour before sacrifice. After sacrifice, prostate glands were collected, formalin-fixed and paraffin-embedded. Paraffin blocks were microtome-sectioned, and the tissues were deparaffinized, observed using fluorescence microscopy, and analyzed using digital image analysis.
The picture shown in FIGS. 7A-7D were taken at 20× magnification using an Olympus BH-2 fluorescence microscope using 480 nm excitation/600 nm emission filters coupled with a Sony DSC-V3 digital camera set at F2.8 and 30 sec. exposure.
Hydroethidine Assay. Hydroethidine dye was dissolved in DMSO (100 mg/ml) and diluted in isotonic saline to 1 mg/ml before injection. […] Microtome sections of the blocks were mounted on slides and were quantitated for fluorescence at 488 nm excitation/595 nm emission frequencies.

[5] = test system: polyamine and acetyl polyamine levels in LNCaP human prostate cells; test: HPLC quantitation of polyamine and acetyl polyamine levels; assay type: cell-based
Text: Each data point is an average of 2 determinations of cell pellets collected from qty. 3 independent experiments.
It can be stated that FIGS. 5A-5E support the conclusion that R1881 treatment increases SSAT mRNA levels while enhancing SSAT enzyme activity.

[6] = test system: TRAMPxFVB mice (palpable prostate tumor); test: Time to palpable tumor development in TRAMPxFVB mice; assay type: in vivo, mouse
Text: Signs of palpable prostate tumor development were monitored twice every week.

[7] = test system: TRAMP male mice (spontaneous prostate tumors); test: Overall survival of TRAMP mice; assay type: in vivo, mouse
[8] = test system: TRAMPxFVB male mice (spontaneous prostate tumors); test: Overall survival of TRAMPxFVB mice; assay type: in vivo, mouse
Text: In the study using the TRAMPxFVB mice, qty. 8 animal were in the MDL 72,527-treated group, and qty. 8 mice were in the vehicle-treated group. Since these animals start prostate tumor development at an earlier age than do the TRAMP animals, treatment began at 8 weeks of age. Treatment included qty. […] Over 60% of the MDL 72,527-treated TRAMPxFVB mice survived at least 8 weeks after the end of the therapy, and at least 6 weeks after the death of the entire group of control vehicle-treated animals.

[9] = test system: SSAT mRNA in LNCaP human prostate cancer cells; test: qRT-PCR quantitation of SSAT mRNA normalized to GAPDH mRNA; assay type: cell-based; conditions: 1 nM R1881, 96 hours
Text: Each data point is an average of readings from qty. six identically-treated wells repeated twice in triplicates. […] It can be thus postulated that androgen-induced SSAT gene expression is a significant contributor to cellular ROS production in androgen-dependent prostate cancer cells.

[10] = test system: SSAT gene expression in LNCaP cells; test: DNA microarray analysis of gene expression (Affymetrix Genechip Arrays); assay type: cell-based, human; conditions: 1 nM R1881, 96 hours
Protocol: As shown schematically in FIG. 1, unusually high polyamine levels in prostate cells and high induction of SSAT may induce large increases in ROS levels. A DNA microarray analysis of gene expression in control untreated LNCaP cells and cells treated with 1 nM androgen analog R1881 for 96 hours was performed twice using Affymetrix Genechip Arrays. In both experiments, SSAT was clearly identified as being highly over-expressed in R1881 treated with LNCaP cells as compared to untreated control cells. Among the list of genes that are over-expressed (more than 10-fold over the control), SSAT was the only enzyme connected to the ROS-generating pathway.

[11] = LNCaP, 24 h pretreatment 25 μM MDL 72,527 then 1 nM R1881 96 h
[12] = 1 μM BE-3-3-3 + 25 μM MDL 72,527

CCNCCCNCCCNCCCNCC [BE-3-3-3, bisethylnorspermine]
DCF/DNA Fluor, units ([1]; 1 μM BE-3-3-3): 3.19 units
DCF/DNA Fluor, units ([2]; 1 μM BE-3-3-3): 0.67 units
cellular ROS levels (DCF/DNA fluorescence, percent of control) ([2]; DU-145, increasing BE-3-3-3 concentration, 72 hours, non-cytotoxic dose <1 μM): increases oxidative stress; also recorded: increases cellular ROS levels

C=C=CCNCCCCNCC=C=C [MDL 72,527]
tolerability (overt signs of toxicity, abnormal behavior, body weight loss) [3]: well-tolerated
Androgen Receptor level (Western blot) (Androgen Receptor): not due to down-regulation of the Androgen Receptor
HEt dye oxidation (fluorescence) in prostate section, oxidative stress in vivo [4]: less HEt fluorescence; also recorded: no dye oxidation was detected
N-acetyl-spermidine level [5, 11]: significant increase
N-acetylspermine level [5, 11]: significant increase
R1881-induced increase in putrescine level [5, 11]: almost completely blocked the induced increase
R1881-induced increase in spermidine level [5, 11]: almost completely blocked the induced increase
spermine level [5, 11]: without appreciably changing
APAO activity in cells ([5]; LNCaP, MDL 72,527 at 25 μM): efficiently and effectively blocked APAO activity
N-Ac-spermine level ([5]; LNCaP, treated with the compound (25 μM, 120 hours), without R1881): insignificantly small increase
effect on SSAT gene expression and/or enzymatic activity ([5]; androgen-treated LNCaP cells, 25 μM MDL 72,527): no material effect
androgen (R1881) induced production of ROS ([1]; 25 μM MDL 72,527 pretreatment, increasing R1881 concentration 96 hours): effectively blocks androgen induced production of ROS
DCF/DNA Fluor, units [1, 12]: 1.87 units
time to tumor development ([6]; TRAMPxFVB mice, 25 mg/kgBW every two weeks): delays time to tumor development
treated mice with no signs of palpable tumor ([6]; TRAMPxFVB, 11 weeks after treatment discontinued (29 week old animals), 25 mg/kgBW once bi-weekly): over 40%
DCF/DNA Fluor, units [2, 12]: 0.26 units
survival benefit vs vehicle-treated mice ([7]; 25 mg/kgBW i.p. bi-weekly): Over 60%
overall survival (OS) vs vehicle ([7]; 25 mg/kgBW i.p. bi-weekly x3, from 22 weeks): significant improvement; also recorded: improvement in overall survival; also recorded: improved overall survival
survival benefit vs vehicle-treated mice ([8]; 25 mg/kgBW i.p. bi-weekly): Over 60%
treated mice surviving at least 8 weeks after the end of the therapy ([8]; 25 mg/kgBW i.p. bi-weekly x6): Over 60%
overall survival (OS) vs vehicle ([8]; 25 mg/kgBW i.p. bi-weekly x6, from 8 weeks of age): significant increase in OS; also recorded: improvement in overall survival; also recorded: increased overall survival

C[C@]1(O)CC[C@H]2[C@@H]3CCC4=CC(=O)CCC4=C3C=C[C@@]21C [R1881, reference compound]
N-acetyl spermidine level ([5]; LNCaP, 1 nM R1881, 96 hours): increases
N-acetylspermine level ([5]; LNCaP, 1 nM R1881, 96 hours): increases
putrescine level ([5]; LNCaP, 1 nM R1881, 96 hours): significantly increases
spermidine level ([5]; LNCaP, 1 nM R1881, 96 hours): significantly increases
spermine level ([5]; LNCaP, 1 nM R1881, 96 hours): decreases
oxidative stress ([1]; 0.05 nM R1881): no increase in oxidative stress
DCF/DNA Fluor, units ([1]; 1 nM R1881): 3.34 units
increase in SSAT gene expression vs untreated control cells (qRT-PCR) [9]: 50 fold
SSAT over-expression over the control (DNA microarray) [10]: more than 10 fold

Cc1c(C)c2c(c(C)c1O)CC[C@@](C)(CCC[C@H](C)CCC[C@H](C)CCCC(C)C)O2 [Vitamin E, α-tocopherol]
DCF/DNA Fluor, units ([1]; 1 nM R1881 + 15 μM Vitamin E): 1.80 units
